We go through one compound from patent US7556796B2, “Directed complementation” (AVEO Pharmaceuticals, Inc., priority 2005, dated 2009).

Broadly, the MTD is the highest dose tested that stayed within the study's limit of toxicity. The low end stands for poorer tolerability, the high end for better tolerability.

In data set [1] the test system is propagated tumors from Her2-dependent inducible spontaneous breast tumors. As to the kind of experiment: Drug response assay with propagated Her2-dependent primary breast tumors. Format: in vivo, mouse. To be noted: 15 or 30 mg/kg, three doses at 5-day intervals, one week after last dosing. Here is the method:
From each primary tumor, about 0.1 million cells/site were injected sub-cutaneously into 30 sites on immunocompromised mice, which were then fed with doxycycline water. Each mouse received two injections, one on each side of its back (subcutaneous). Thus, one primary tumor was expanded into 30 propagated tumors onto 15 mice, each of the mice developing two tumors on its back. Out of these thirty tumors, 10 tumor-bearing mice were treated with vehicle (5 parts Tween-80, 5 parts absolute ethyl alcohol, 90 parts 5% dextrose), another 10 tumor bearing-mice were treated with 15 mg/kg docetaxel (Biochemika, cat. No. 01885), and the remaining 10 tumor-bearing mice were treated with 30 mg/kg docetaxel (which was already determined to be near MTD for this drug). In total, five primary tumors were expanded to 150 tumors in 75 animals.
When the tumors reached approximately 5 mm^3 in size, the treatments were begun. The animals were given three doses with 5-day intervals. The experiment was terminated one week after the final dosing. Among propagated tumors derived from any given primary tumor, uniformity in terms of latency, growth rate and drug response was expected (intra-tumoral uniformity). In contrast, among propagated tumors derived from different primary tumors variation in terms of growth rate, latency and drug response was expected (inter-tumoral variation). […]

Data set [2] in a line: Maximum tolerated dose (previously determined). To be noted: mouse, in vivo; already determined to be near MTD for this drug.

As for `CC(=O)O[C@@]12CO[C@@H]1C[C@H](O)[C@@]1(C)C(=O)[C@H](O)C3=C(C)[C@@H](OC(=O)[C@H](O)[C@@H](NC(=O)OC(C)(C)C)c4ccccc4)C[C@@](O)([C@@H](OC(=O)c4ccccc4)[C@H]21)C3(C)C` [docetaxel], the “drug response (tumor size vs vehicle)” value in data set [1] (propagated tumors from one of the five primary tumors) was “significant reduction in tumor growth”; in data set [1] (propagated tumors from the remaining four of five primary tumors), “did not show any effect”. The maximum tolerated dose (MTD) in data set [2] is approximately 30 mg/kg.
